Source: patent publication US20070129385A1, “Amorphous valganciclovir hydrochloride” (priority 2003, published 2007)
Counter-ions that a name gives are not always drawn.

How the values were obtained:
[1] = storage stability of the solid amorphous form; type: physicochemical
From the text: Solid amorphous valganciclovir hydrochloride is provided herein. The amorphous valganciclovir hydrochloride can be produced with no detectable crystalline valganchloride hydrochloride present, based on XRD investigations having a limit of detection of 0.5%.
The mixture of amorphous valganciclovir hydrochloride containing some crystalline form is then substantially converted to an amorphous form by dissolving it in water (optionally containing an organic solvent) followed by spray-drying of the solution as described earlier. Crystalline formation at this stage can be inhibited by storage under nitrogen in the strict absence of atmosphere or other water. The amorphous material has been found stable for up to at least 3 months with proper storage.

[2] = system: human cytomegalovirus; conditions: in vitro and in vivo; cited from earlier work
[3] = administered orally; cited from earlier work

CC(C)[C@@H](N)C(=O)OCC(CO)OCn1cnc2c(O)nc(N)nc21 (stereo partly drawn) [Amorphous valganciclovir hydrochloride, L-valinate ester of 2-(2-amino-1,6-dihydro-6-oxo-purin-9-yl)-methoxy-3-hydroxy-1-propanyl hydrochloride salt]
time for which the material was found stable ([1]; proper storage (under nitrogen, absence of water)): at least 3 months
stability on storage ([1]; stored under controlled humidity conditions): stable when stored under controlled humidity conditions
stability profile compared with the crystalline form ([1]; versus existing crystalline form): superior stability profile to the existing crystalline form

Nc1nc(O)c2ncn(COC(CO)CO)c2n1 [Ganciclovir]
replication of human cytomegalovirus [2]: inhibits replication of human cytomegalovirus in vitro and in vivo
rate of absorption [3]: very low rate of absorption
